In brackets after ≈: the same amount, converted by molar mass.

Data set [1] can be described thus: physchem. The note with it: buffer, pH 7.4.
Data set [2] in a line: physchem. The note with it: buffer, pH 7.4. The source holds these as a separate data set.
Data set [3] in a line: Oral bioavailability in Han Wistar rat at 2 mg/kg. The data set is classed as ADME, organism-based. The note with it: in vivo.
Data set [4] is described as follows: Volume of distribution at steady state in Han Wistar rat at 1 mg/kg, iv and 2 mg/kg, po. In kind it is ADME, organism-based. The note with it: in vivo, read-out: Vdss.
Data set [5] is described as follows: Volume of distribution at steady state in beagle dog at 1 mg/kg, iv and 1 mg/kg, po. The data set is classed as ADME, organism-based, Canis lupus familiaris. The note with it: in vivo, read-out: Vdss.
The nature of data set [6]: Oral bioavailability in beagle dog at 1 mg/kg. The data set is classed as ADME, organism-based, Canis lupus familiaris. The note with it: in vivo.

With `CC1(C)COCc2sc(N3CCN(C(=O)[C@@H]4CCCC[C@H]4C(=O)NC4(C#N)CC4)CC3)nc21`, the logD in “physchem [1]” came to 2.4. Also, the solubility in “physchem [2]” is 1700 µM (≈ 802 µg/mL).
With `N#CC1(NC(=O)[C@@H]2CCCC[C@H]2C(=O)N2CCN(c3nc(C(F)(F)F)cs3)CC2)CC1`, the logD in the data set “physchem [1]” came out at 2.4.
Compound `N#CC1(NC(=O)[C@@H]2CCCC[C@H]2C(=O)N2CCN(c3nc(C(F)(F)F)c(Cl)s3)CC2)CC1` registered a logD in the data set “physchem [1]” of 3.4.
`CC(C)(C#N)c1cnc(N2CCN(C(=O)[C@@H]3CCCC[C@H]3C(=O)NC3(C#N)CC3)CC2)s1`: the logD in “physchem [1]” came out at 1.9. The compound also yielded a solubility in the data set “physchem [2]” of 2600 µM (≈ 1180 µg/mL).
In data set [3], `CS(=O)(=O)c1ccc2nc(N3CCN(C(=O)[C@@H]4CCCC[C@H]4C(=O)NC4(C#N)CC4)CC3)sc2c1` came in with a bioavailability of 3.3%. Further, in data set [4], the Vd was found to be 0.54 L/kg. This compound also displayed a logD in “physchem [1]” of 1.5.
`N#Cc1cnc(N2CCN(C(=O)[C@@H]3CCCC[C@H]3C(=O)NC3(C#N)CC3)CC2)s1` returned a logD in “physchem [1]” of 1.2.
In the data set “physchem [1]”, `N#CC1(NC(=O)[C@@H]2CCCC[C@H]2C(=O)N2CCN(c3nc4c(s3)CCC4)CC2)CC1` displayed a logD of over 3.
`N#CC1(NC(=O)[C@@H]2CCCC[C@H]2C(=O)N2CCN(c3nccs3)CC2)CC1` registered a logD in “physchem [1]” of 1.3. Further, the solubility in “physchem [2]” was 3100 µM (≈ 1200 µg/mL).
With `N#CC1(NC(=O)[C@@H]2CCCC[C@H]2C(=O)N2CCN(c3nc4ccccc4s3)CC2)CC1`, the Vd in data set [5] and in data set [4] was 1.5 L/kg throughout. Besides, the bioavailability in data set [3] is 20%; in data set [6], 78%. Besides, in the data set “physchem [1]”, the log distribution coefficient (logD) is 2.6. Besides, in the data set “physchem [2]”, the solubility came out at 1000 µM (≈ 438 µg/mL).
Consider `N#CC1(NC(=O)[C@@H]2CCCC[C@H]2C(=O)N2CCN(c3nc4ccncc4s3)CC2)CC1`, for which the logD in “physchem [1]” was 1.6. This compound also yielded a solubility in the data set “physchem [2]” of over 1600 µM.
On to `N#CC1(NC(=O)[C@@H]2CCCC[C@H]2C(=O)N2CCN(c3nc4c(s3)COCC4)CC2)CC1`, for which, in data set [3], the bioavailability worked out at 33%. For the same compound, the Vd in data set [4] was found to be 1.3 L/kg. For the same compound, the logD in “physchem [1]” was found to be 1.4. In the data set “physchem [2]”, this compound gave a solubility of over 3600 µM.
Turning to `Cc1sc(N2CCN(C(=O)[C@@H]3CCCC[C@H]3C(=O)NC3(C#N)CC3)CC2)nc1C(F)(F)F`, in the data set “physchem [1]”, the logD came out at 2.9.
As to `N#CC1(NC(=O)[C@@H]2CCCC[C@H]2C(=O)N2CCN(c3nc(-c4ccccc4)cs3)CC2)CC1`, the logD in “physchem [1]” came out at 3.5. The compound also gave a solubility in “physchem [2]” of 96 µM (≈ 44.5 µg/mL).
The like results for `CC(C)(C)c1csc(N2CCN(C(=O)[C@@H]3CCCC[C@H]3C(=O)NC3(C#N)CC3)CC2)n1` were, in that order, 3.3 and 280 µM (≈ 124 µg/mL).
Take `N#CC1(NC(=O)[C@@H]2CCCC[C@H]2C(=O)N2CCN(c3nc4ncccc4s3)CC2)CC1`: the logD in the data set “physchem [1]” is 1.4. The compound also displayed a solubility in “physchem [2]” of over 2000 µM.
As for `N#CC1(NC(=O)[C@@H]2CCCC[C@H]2C(=O)N2CCN(c3nc4cnccc4s3)CC2)CC1`, the bioavailability in data set [3] was found to be 17%. Further, the Vd in data set [4] is 0.8 L/kg. Further, the log distribution coefficient (logD) in “physchem [1]” was 1.7. The solubility in the data set “physchem [2]” was over 1500 µM.

What is called logD is the decadic logarithm of the distribution of all forms, ionised or not, between an organic phase and buffer at a given pH. Lower therefore signals a more hydrophilic compound. One may read the solubility as the concentration that dissolves in the medium under given conditions. In general, bioavailability refers to dose-corrected exposure relative to a reference, in per cent. A high value points to much systemic uptake.

The values above are taken from ChEMBL document CHEMBL2069241, “Isosteric replacements for benzothiazoles and optimisation to potent Cathepsin K inhibitors free from hERG channel inhibition” (Bioorg Med Chem Lett, 2012).
